Reference: patent US3978225A, “Heterocyclic homoprostanoidal derivatives” (SmithKline Corporation, priority 1975, dated 1976)

Assays:
prostaglandin synthesis = experiment: Inhibition of prostaglandin synthesis (arachidonic acid-dependent formation of adrenochrome from L-epinephrine); format: biochemical; settings: for IC50: read-out: ID50, inhibition of prostaglandin synthesis; for Inhibition of prostaglandin synthesis: 1000 μM
Excerpt: The prostaglandin synthesis inhibition method as employed is reported by Takeguchi and Sih, Prastaglandins, 2, 169, 1972. The principle entails the arachidonic acid-dependent formation of adrenochrome from L-epinephrine during prostaglandin biosynthesis. Indomethacin, phenylbutazone and aspirin were used as reference compounds.

[1] = test system: diarrhea induced by prostaglandin E2 (PGE2); experiment: Inhibition of PGE2 diarrhea in mice; format: in vivo; settings: 15 minutes prior to i.p. PGE2
Description: The antagonism of diarrhea induced by prostaglandin E2 (PGE2) was determined by employing the modified standard animal pharmacological test procedure as reported in Intra Science Chem. Rept 6:1-9, 1972 and Annals of the New York Academy of Sciences 180:386-95, 1971. Briefly the test comprises administering the test compounds subcutaneously 15 minutes prior to an intraperitoneal injection of PGE2. Each animal is examined for diarrhea (which results after the administration of PGE2) every 15 minutes for one hour post-drug. Polyphloretin phosphate and 7 oxa-13-prostynoic acid, both well known antagonists of prostaglandin induced diarrhea, were employed as reference compounds. Results of tests conducted for the inhibition of PGE2 diarrhea in mice are disclosed in Table 2.

Molecule: COc1ccc2c(c1)c(CC(=O)O)c(C)n2C(=O)c1ccc(Cl)cc1 [Indomethacin, reference compound]
- IC50 (prostaglandin synthesis): 2 µM

Molecule: CCCCC1C(=O)N(c2ccccc2)N(c2ccccc2)C1=O [Phenylbutazone, reference compound]
- IC50 (prostaglandin synthesis): 875 µM

Molecule: CCCCCCCC[C@@H]1SC(=S)S[C@H]1CCCCCCCC(=O)O (relative stereo) [Compound E, (8.xi.-trans)-10-thioxo-9,11-dithia-1a-homoprostan-1-oic acid]
- IC50 (prostaglandin synthesis): 390 µM

Molecule: polyphloretin phosphate [PPP, reference compound]
- Percent Change, Diarrhea Incidence ([1]; 5 mg/kg S.C.): -4%
- Percent Change, Diarrhea Incidence ([1]; 10 mg/kg S.C.): -26%
- Percent Change, Diarrhea Incidence ([1]; 20 mg/kg S.C.): -36%
- Percent Change, Diarrhea Incidence ([1]; 40 mg/kg S.C.): -65%
- Percent Change, Diarrhea Incidence ([1]; 80 mg/kg S.C.): -68%

Molecule: CCCCCCCC[C@@H]1OS(=O)O[C@H]1CCCCCCCC(=O)OC (relative stereo) [Compound C]
- Percent Change, Diarrhea Incidence ([1]; 5 mg/kg S.C.): +15%
- Percent Change, Diarrhea Incidence ([1]; 10 mg/kg S.C.): -31%
- Percent Change, Diarrhea Incidence ([1]; 20 mg/kg S.C.): -54%
- Percent Change, Diarrhea Incidence ([1]; 40 mg/kg S.C.): -8%
- Inhibition of prostaglandin synthesis (prostaglandin synthesis): 20%

Molecule: CCCCCCC#C[C@H]1CCC[C@@H]1OCCCCCC(=O)O [7-oxa-13-prostynoic acid, reference compound]
- Percent Change, Diarrhea Incidence ([1]; 0.2 mg/kg S.C.): -15%
- Percent Change, Diarrhea Incidence ([1]; 1 mg/kg S.C.): -100%
- Percent Change, Diarrhea Incidence ([1]; 5 mg/kg S.C.): -100%

Molecule: CCCCCCCC[C@@H]1OS(=O)O[C@@H]1CCCCCCCC(=O)OC (relative stereo) [Compound G, (8.xi.-cis)-10-oxo-9,11-dioxa-10-thia-1a-homoprostan-1-oic acid, methyl ester]
- Percent Change, Diarrhea Incidence ([1]; 5 mg/kg S.C.): -14%
- Percent Change, Diarrhea Incidence ([1]; 10 mg/kg S.C.): -29%
- Percent Change, Diarrhea Incidence ([1]; 20 mg/kg S.C.): -57%
- Percent Change, Diarrhea Incidence ([1]; 40 mg/kg S.C.): 0%

Molecule: CC(=O)Oc1ccccc1C(=O)O [Aspirin, reference compound]
- IC50 (prostaglandin synthesis): 3700 µM

Molecule: CCCCCCCC[C@@H]1OCO[C@H]1CCCCCCCC(=O)O (relative stereo) [Compound F, (8.xi.-trans)-9,11-dioxa-1a-homoprostan-1-oic acid]
- Percent Change, Diarrhea Incidence ([1]; 5 mg/kg S.C.): 0%
- Percent Change, Diarrhea Incidence ([1]; 10 mg/kg S.C.): -36%
- Percent Change, Diarrhea Incidence ([1]; 20 mg/kg S.C.): 0%
- Percent Change, Diarrhea Incidence ([1]; 40 mg/kg S.C.): -14%
- Inhibition of prostaglandin synthesis (prostaglandin synthesis): 30%
